According to US9861615B2, “Methods and pharmaceutical compositions for the treatment of beta-thalassemias” (INSERM (INSTITUT NATIONAL DE LA SANTE ET DE LA RECHERCHE …, priority 2013, dated 2018):

Key:
[1] = tested on: CD36+ erythroid progenitors from cord blood; test: Toxicity of KPT on CD36+ erythroid progenitors, normal EPO; type: cell-based, human; settings: day 6 (D6) of culture; 33 nM, 100 nM, 333 nM and 1000 nM; normal concentrations of EPO; until 20 h of treatment
Method: FIG. 3A. KPT is not toxic for CD36+ erythroid progenitors from cord blood at day 6 (D6) of culture, when diluted at concentrations 33 nM, 100 nM, 333 nM and 1000 nM in CD36+ culture media, with normal concentrations of erythropoietin (EPO), until 20 h of treatment.
(§1) Umbilical cord blood units from normal full-term deliveries were obtained, after informed mother's consent, from the Obstetrics Unit of Hôpital Necker-Enfants Malades. CD36+ erythroid progenitors, generated from 7 days IL-6+IL3+SCF− cultured CD34 progenitors isolated from cord blood (Miltenyi CD34 Progenitor Cell Isolation Kit), were cultured in the presence of IL3+SCF+Epo in IMDM (Gibco cell culture) supplemented with 15% BIT 9500 (Stem Cell Technologies).

[2] = tested on: CD36+D6 erythroid progenitors from cord blood; test: Cell death of CD36+D6 cells during EPO starvation; type: cell-based, human; settings: EPO starvation during 20 h (80% of cell death without KPT)
Method: FIG. 3B. EPO starvation during 20 h results in 80% of cell death. Treatment of CD36+D6 with KPT at 100 nM, 333 nM during EPO starvation decreases cell death, of 49% and 39% respectively, compared to the absence of KPT treatment.
as §1

[3] = tested on: CD36+ cells derived from circulating CD34+ cells from Beta thalassemia major patient; test: Proliferation, cell death and terminal maturation of beta-thalassemia CD36+ cells; type: cell-based, human
Method: FIG. 6. CD36+ cells, derived from circulating CD34+ cells from Beta thalassemia major patient, were treated or not with KPT molecule (KPT 0=DMSO, KPT 100=100 nM, KPT 1000=1000 nM), and analysed at 24 h, 48 h, 72 h and 96 h of treatment. Day 0 of treatment corresponds to day 5 of CD36+ culture. a) Proliferation of CD36+ cells between 24 h and 96 h, for the different conditions of KPT treatment. b) Cell death of CD36+ cells between 48 h and 96 h, for the different conditions of KPT treatment. c) Flow cytometry analysis of Mean fluorescence intensity (MFI) for Band 3 protein, in CD36+ cells, in the different conditions of KPT treatment. d) MGG count of immature, polychromatophiles and acidophiles+reticulocytes at 96 h of treatment, for the different conditions of KPT treatment and e) corresponding maturation indexes.
FIG. 7: CD36+ cells, derived from circulating CD34+ cells from Beta thalassemia major patient, were treated or not with KPT molecule (KPT 0=DMSO, KPT 100=100 nM, KPT 1000=1000 nM), and analysed at 24 h, 48 h, and 72 h of treatment. Day 0 of treatment corresponds to day 6 of CD36+ culture. a) Proliferation of CD36+ cells between 24 h and 72 h, for the different conditions of KPT treatment. b) Cell death of CD36+ cells between 24 h and 72 h, for the different conditions of KPT treatment. c) Flow cytometry analysis of MFI for Band 3 protein, in CD36+ cells, in the different conditions of KPT treatment. d) Flow cytometry analysis of the number of small, alive, CD36+ cells positive for fœtal haemoglobin in the different conditions of KPT treatment. e) MGG count of immature, polychromatophiles and acidophiles+reticulocytes at 48 h of treatment, for the different conditions KPT 0 and KPT 100 nM and f) corresponding maturation indexes.
(§2) Data from FIG. 6 and FIG. 7 are from two different experiments on CD36+ cells from a beta-thalassemia patient. Data from FIG. 8 have been performed with cells from FIG. 7 experiment. Beta-thalassemia erythroblasts were generated in vitro from peripheral blood circulating CD34+ cells from an adult patient with beta-thalassemia major (β^0-TM). This study was performed according to the Helsinky Declaration with approval from the ethics committee of our institution.
In vitro, maturation is arrested at the polychromatophilic stage in beta-thalassemia erythroid progenitors. To quantify the maturation arrest in beta-thalassemia cells, we use an index of terminal maturation as the number (acidophilic cells+reticulocytes per slide)*100 divided by the number of polychromatophilic cells per slide (Arlet J b et al. Nature oct 2014).

[4] = tested on: HSP70 nuclear retention in CD36+D6 from cord blood; test: HSP70 nuclear retention in cord blood CD36+D6 under EPO starvation; type: cell-based, human; settings: after 20 h of treatment
Method: as §1
5·10^4 cells were spin on slides, acetone fixated, hydrated with cold 1×PBS 1% BSA for 30 minutes, treated with formaldehyde for 15 min (Sigma), then with methanol (Prolabo) for 10 minutes at room temperature. Cells were then permeabilized with 1×PBS 0.2% triton X100 (Sigma) for 10 min at 4° C., washed and incubated in 10% BSA for 30 minutes. They were then sequentially incubated with antibodies diluted in 1×PBS 1% BSA 0.1% tween (Sigma). Nuclei were stained with DAPI and slides were examined with a confocal laser microscope (LSM 700 Carl Zeiss).

[5] = tested on: HSP70 nuclear localization in beta-thalassemia CD36+ cells; test: HSP70 localization and GATA1 fluorescence in beta-thalassemia CD36+ cells; type: cell-based, human
Method: FIG. 8. CD36+ cells from the same experiment as FIG. […] Percentages of cells containing HSP70 located in the nucleus (black) or in the cytoplasm (grey), gated on the total population of cells analyzed, for the different treatment conditions: KPT 0 (a), KPT 100 nM (b) and KPT 1000 nM (c). d) HSP70 cytoplasm/nuclear ratio for the three treatment conditions e) Mean intensity and standard deviation for GATA1 transcription factor fluorescence.
as §2
Amnis Technology enables to analyse fluorescence localization in a large number of cells beforehand labelled. Here we show the percentage of cells positive for HSP70 labelling in the nucleus, or in the cytoplasm, for conditions KPT 0, 100 nM and 1000 nM (FIG. 8). We can observe that the fraction of cells positive for HSP70 in the nucleus increases in KPT 100 nM and 1000 nM conditions (FIGS. 8b and 8c), compared to KPT 0 (FIG. 8a).

XPO1 = XPO1 (Homo sapiens, UniProt O14980); settings: cited from earlier work
Chain of XPO1 (O14980 whole entry): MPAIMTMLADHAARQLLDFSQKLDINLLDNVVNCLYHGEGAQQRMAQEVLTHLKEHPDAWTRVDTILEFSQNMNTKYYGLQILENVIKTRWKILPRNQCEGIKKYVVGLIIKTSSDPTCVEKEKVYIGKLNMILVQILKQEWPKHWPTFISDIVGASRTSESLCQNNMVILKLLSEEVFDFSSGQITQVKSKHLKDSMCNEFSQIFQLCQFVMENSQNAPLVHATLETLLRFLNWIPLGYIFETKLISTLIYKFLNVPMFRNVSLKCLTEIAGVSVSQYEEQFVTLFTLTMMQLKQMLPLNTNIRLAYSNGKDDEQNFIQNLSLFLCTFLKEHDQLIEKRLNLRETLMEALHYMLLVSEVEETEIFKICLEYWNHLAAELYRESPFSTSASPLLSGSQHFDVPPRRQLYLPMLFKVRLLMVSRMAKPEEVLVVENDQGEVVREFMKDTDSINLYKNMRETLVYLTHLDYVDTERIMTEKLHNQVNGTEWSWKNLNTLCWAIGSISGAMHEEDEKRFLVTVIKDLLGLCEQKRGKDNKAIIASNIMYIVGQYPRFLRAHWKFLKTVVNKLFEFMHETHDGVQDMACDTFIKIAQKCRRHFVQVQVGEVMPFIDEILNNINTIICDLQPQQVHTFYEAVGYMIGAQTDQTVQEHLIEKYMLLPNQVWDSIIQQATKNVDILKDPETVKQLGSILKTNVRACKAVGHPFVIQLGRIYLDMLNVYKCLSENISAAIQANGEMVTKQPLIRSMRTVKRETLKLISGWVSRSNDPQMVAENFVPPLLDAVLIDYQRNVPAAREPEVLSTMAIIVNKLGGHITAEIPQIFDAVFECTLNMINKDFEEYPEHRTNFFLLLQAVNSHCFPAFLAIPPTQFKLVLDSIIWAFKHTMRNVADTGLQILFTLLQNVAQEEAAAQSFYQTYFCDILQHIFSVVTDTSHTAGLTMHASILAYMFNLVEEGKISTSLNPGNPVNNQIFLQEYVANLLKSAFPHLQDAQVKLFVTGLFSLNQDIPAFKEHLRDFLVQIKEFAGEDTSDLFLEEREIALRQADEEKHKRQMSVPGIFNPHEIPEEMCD

| Structure (SMILES) | toxicity for CD36+ erythroid progenitors [1] | decrease of cell death compared to the absence of KPT treatment ([2]; KPT 100 nM) [%] | decrease of cell death compared to the absence of KPT treatment ([2]; KPT 333 nM) [%] | proportion of HbF positive among the population of small alive cells ([3]; 72 hours of treatment with 1000 nM, compared to KPT 0 and KPT 100 nM) | maturation index (acidophilic cells+reticulocytes)*100 / polychromatophilic cells ([3]; KPT 100 nM and 1000 nM compared to control condition KPT 0) | mean fluorescence intensity (MFI) of Band 3 protein labelling ([3]; KPT 100 nM or 1000 nM, at 96 h of treatment (FIG. 6c) and at 72 h of treatment (FIG. 7c), flow cytometry) | cytotoxicity (cell death of CD36+ cells) ([3]; KPT 1000 nM compared to KPT 0 and KPT 100 nM) | proliferation of CD36+ cells ([3]; KPT 1000 nM compared to KPT 0 and KPT 100 nM, only in the experiment with high proliferation rate in control condition) | HSP70 nuclear retention [4] | HSP70 cyto/nuclear fraction ([5]; KPT 100 nM and 1000 nM compared to KPT 0, 24 h of treatment) | fraction of cells positive for HSP70 in the nucleus ([5]; KPT 100 nM and 1000 nM compared to KPT 0, 24 h of treatment, Amnis) | mean of fluorescence intensity of GATA1 labelling ([5]; KPT treatment conditions of FIG. 8, 24 h of treatment) | HSP70 nuclear localization ([5]; beta-thalassemia CD36+D8 cells, 72 h of treatment at 100 nM, compared to non treated cells) | HSP70 nuclear retention in erythroid precursor cells (XPO1) |
| --- | --- | --- | --- | --- | --- | --- | --- | --- | --- | --- | --- | --- | --- | --- |
| FC(F)(F)c1cc(-c2ncn(/C=C\c3nnco3)n2)cc(C(F)(F)F)c1 [KPT] | not toxic | 49 | 39 | higher | increases | increases | little cytotoxicity | decreased proliferation | induces HSP70 nuclear retention | decrease | increases | increase | induces HSP70 nuclear localization | – |
| CCC(=C/[C@H](C)C/C=C/C(C)=C/[C@@H](C)C(=O)[C@@H](C)[C@H](O)[C@@H](C)C/C(C)=C/C(=O)O)/C=C/[C@@H]1OC(=O)C=C[C@@H]1C [Leptomycin B] | – | – | – | – | – | – | – | – | – | – | – | – | – | induces HSP70 nuclear retention |
